We go through 13 compounds from patent publication US9926281B2 (priority 2014, dated 2018).

Experiment [1] deals with T1, human ADAMTS-5 (Homo sapiens (Human), UniProt Q9UNA0). As to conditions: read-out: hADAMTS-5 potency IC50.
The target of a further experiment is human TACE (Homo sapiens (Human), UniProt P78536). The following applies: read-out: TACE potency IC50.
The target of another experiment is human MMP13 (Homo sapiens (Human), UniProt P45452). The following applies: read-out: hMMP-13 potency IC50.
Experiment [2] addresses T1, human ADAMTS-5. The following applies: read-out: hADAMTS-5 potency IC50. The source holds these as a separate data set.
Method: Finally, the fluorescence is read on the Envision (Perkin Elmer) after an incubation of 90 min at 37° C.

Like-named read-outs stand apart in the source and are kept apart here.

T1 sequence (Q9UNA0 262-930): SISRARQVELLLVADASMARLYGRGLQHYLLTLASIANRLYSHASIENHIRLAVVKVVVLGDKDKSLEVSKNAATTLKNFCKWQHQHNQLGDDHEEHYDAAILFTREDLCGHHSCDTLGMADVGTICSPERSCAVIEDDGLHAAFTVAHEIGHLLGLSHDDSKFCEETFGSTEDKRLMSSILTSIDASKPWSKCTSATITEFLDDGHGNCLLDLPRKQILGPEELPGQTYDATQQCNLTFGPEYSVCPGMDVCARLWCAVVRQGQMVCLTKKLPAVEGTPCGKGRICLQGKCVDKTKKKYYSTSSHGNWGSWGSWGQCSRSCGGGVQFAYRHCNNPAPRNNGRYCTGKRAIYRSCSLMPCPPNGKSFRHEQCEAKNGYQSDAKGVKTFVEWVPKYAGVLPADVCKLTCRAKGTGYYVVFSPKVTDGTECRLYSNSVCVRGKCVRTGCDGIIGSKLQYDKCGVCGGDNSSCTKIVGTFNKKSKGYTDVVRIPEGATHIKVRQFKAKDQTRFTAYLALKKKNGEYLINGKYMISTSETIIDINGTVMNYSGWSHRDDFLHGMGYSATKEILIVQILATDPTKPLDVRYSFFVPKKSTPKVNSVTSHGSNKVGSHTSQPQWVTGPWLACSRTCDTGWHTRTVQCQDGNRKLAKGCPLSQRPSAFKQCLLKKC
Sequence of human TACE (P78536 whole entry, looked up, change not shown): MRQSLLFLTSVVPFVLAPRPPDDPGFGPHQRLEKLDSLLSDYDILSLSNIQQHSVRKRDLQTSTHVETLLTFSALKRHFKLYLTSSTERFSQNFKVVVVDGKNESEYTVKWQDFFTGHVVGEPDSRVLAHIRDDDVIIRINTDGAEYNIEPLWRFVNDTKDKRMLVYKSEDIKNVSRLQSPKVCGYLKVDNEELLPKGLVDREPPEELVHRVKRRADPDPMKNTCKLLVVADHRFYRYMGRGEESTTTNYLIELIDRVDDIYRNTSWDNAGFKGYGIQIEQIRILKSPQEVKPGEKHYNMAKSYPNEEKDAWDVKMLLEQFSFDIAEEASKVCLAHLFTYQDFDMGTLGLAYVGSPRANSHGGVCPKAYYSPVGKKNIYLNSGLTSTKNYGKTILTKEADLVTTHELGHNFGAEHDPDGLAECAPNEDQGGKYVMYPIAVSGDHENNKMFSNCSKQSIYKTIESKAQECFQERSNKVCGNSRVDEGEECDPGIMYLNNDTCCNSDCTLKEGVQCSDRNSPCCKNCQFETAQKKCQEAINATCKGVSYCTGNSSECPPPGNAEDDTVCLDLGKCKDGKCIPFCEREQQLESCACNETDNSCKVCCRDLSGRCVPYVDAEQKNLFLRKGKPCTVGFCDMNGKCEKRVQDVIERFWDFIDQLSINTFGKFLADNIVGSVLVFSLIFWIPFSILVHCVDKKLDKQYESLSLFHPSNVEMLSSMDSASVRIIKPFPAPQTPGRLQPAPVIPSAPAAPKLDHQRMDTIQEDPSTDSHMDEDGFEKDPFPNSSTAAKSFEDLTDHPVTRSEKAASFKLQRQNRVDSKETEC
Method for human MMP13: Human MMP13 is preactivated by incubated the enzyme in the same buffer complemented with 1 mM freshly prepared p-Aminophenylmercuric acetate (AMPA) for 1 hour at 37° C.

One may read the IC50 as the concentration that inhibits the measured activity by half. As for `CC1(CCC(=O)N2CCN(c3ccc(Cl)c(Cl)c3)CC2)NC(=O)NC1=O` (stereo not drawn) [compound 67, 5-[3-[4-(3,4-dichlorophenyl)piperazin-1-yl]-3-oxo-propyl]-5-methyl-imidazolidine-2,4-dione], the IC50 is 152 nM at human ADAMTS-5 [1], more than 4000 nM at human TACE and more than 3500 nM at human MMP13.

As for `Cc1ccc(C)c(N2CCN(C(=O)CCC3(C)NC(=O)NC3=O)CC2)c1` (stereo not drawn) [compound 39, 5-[3-[4-(2,5-dimethylphenyl)piperazin-1-yl]-3-oxo-propyl]-5-methyl-imidazolidine-2,4-dione], the IC50 at human ADAMTS-5 [1] stood at 570 nM; on human TACE it was 588 nM.

Turning to `CC1(CCC(=O)N2CCN(c3cccnc3)CC2)NC(=O)NC1=O` (stereo not drawn) [compound 43, 5-methyl-5-[3-oxo-3-[4-(3-pyridyl)piperazin-1-yl]propyl]imidazolidine-2,4-dione], the values for the IC50 on human ADAMTS-5 [1], at human TACE and on human MMP13 were 1530 nM, more than 20000 nM and more than 20000 nM, respectively.

As for `O=C1NC(=O)C(CCC(=O)N2CCN(c3ccc4occc4c3)CC2)(c2ccccc2)N1` (stereo not drawn) [compound 25, 5-[3-[4-(benzofuran-5-yl)piperazin-1-yl]-3-oxo-propyl]-5-phenyl-imidazolidine-2,4-dione], the IC50 on human ADAMTS-5 [1] was 138 nM; at human TACE it was more than 2000 nM.

Consider `COc1ccc(Cl)cc1C1(CCC(=O)N2CCN(c3cc(Cl)ccc3C)CC2)NC(=O)NC1=O` (stereo not drawn) [compound 133, 5-(5-chloro-2-methoxy-phenyl)-5-[3-[4-(5-chloro-2-methyl-phenyl)piperazin-1-yl]-3-oxo-propyl]imidazolidine-2,4-dione], for which the IC50 at human ADAMTS-5 [1] was 108 nM; on human TACE, 195 nM; at human MMP13, more than 20000 nM.

With `CC1(CCC(=O)N2CCN(c3cc(F)cc(Cl)c3)CC2)NC(=O)NC1=O` (stereo not drawn) [compound 117, 5-[3-[4-(3-chloro-5-fluoro-phenyl)piperazin-1-yl]-3-oxo-propyl]-5-methyl-imidazolidine-2,4-dione], the IC50 was 211 nM at human ADAMTS-5 [1], more than 4000 nM on human TACE and more than 4000 nM at human MMP13.

Take `CC1(CCC(=O)N2CCN(c3ccc(F)c(Cl)c3)CC2)NC(=O)NC1=O` (stereo not drawn) [compound 52, 5-[3-[4-(3-chloro-4-fluoro-phenyl)piperazin-1-yl]-3-oxo-propyl]-5-methyl-imidazolidine-2,4-dione]: the IC50 at human ADAMTS-5 [1] is 281 nM; at human TACE, more than 20000 nM.

In the case of `O=C1NC(=O)C(CCC(=O)N2CCN(c3ccc4scnc4c3)CC2)(c2ccccc2)N1` (stereo not drawn) [compound 26, 5-[3-[4-(1,3-benzothiazol-5-yl)piperazin-1-yl]-3-oxo-propyl]-5-phenyl-imidazolidine-2,4-dione], the IC50 at human ADAMTS-5 [1] is 706 nM; on human TACE it was more than 10000 nM.

Regarding `CC1(CCC(=O)N2CCN(c3ccccc3F)CC2)NC(=O)NC1=O` (stereo not drawn) [compound 30, 5-[3-[4-(2-fluorophenyl)piperazin-1-yl]-3-oxo-propyl]-5-methyl-imidazolidine-2,4-dione], the IC50 at human ADAMTS-5 [1] and at human ADAMTS-5 [2] was more than 4000 nM throughout.

Consider `CC1(CCC(=O)N2CCN(c3ccccc3C#N)CC2)NC(=O)NC1=O` (stereo not drawn) [compound 29], for which the IC50 on human ADAMTS-5 [1] is more than 12000 nM; at human ADAMTS-5 [2], more than 4000 nM.

For the compound `CC1CN(C(=O)CCC2(C)NC(=O)NC2=O)CCN1c1ccccc1` (stereo not drawn) [compound 63, 5-methyl-5-[3-(3-methyl-4-phenyl-piperazin-1-yl)-3-oxo-propyl]imidazolidine-2,4-dione], the IC50 was 1240 nM on human ADAMTS-5 [1] and more than 20000 nM at human TACE.

Take `Cc1ccccc1N1CCN(C(=O)CCC2(C(C)C)NC(=O)NC2=O)CC1` (stereo not drawn) [compound 32, 5-isopropyl-5-[3-[4-(o-tolyl)piperazin-1-yl]-3-oxo-propyl]imidazolidine-2,4-dione]: the figures for the IC50 at human ADAMTS-5 [1] and at human TACE were 385 nM and more than 4000 nM, respectively.

As for `CC1CN(C(=O)CCC2(c3ccccc3)NC(=O)NC2=O)CCN1c1ccccc1` (stereo not drawn) [compound 62, 5-[3-(3-methyl-4-phenyl-piperazin-1-yl)-3-oxo-propyl]-5-phenyl-imidazolidine-2,4-dione], the IC50 was 293 nM at human ADAMTS-5 [1] and more than 20000 nM on human TACE.
